# From the kinase profiling compilation of Christmann-Franck et al. (2016)
# Molecular target: KDR (human) (UniProt P35968)
# Experiment: HTRF
# Sequence of KDR (human) (P35968 whole entry, looked up): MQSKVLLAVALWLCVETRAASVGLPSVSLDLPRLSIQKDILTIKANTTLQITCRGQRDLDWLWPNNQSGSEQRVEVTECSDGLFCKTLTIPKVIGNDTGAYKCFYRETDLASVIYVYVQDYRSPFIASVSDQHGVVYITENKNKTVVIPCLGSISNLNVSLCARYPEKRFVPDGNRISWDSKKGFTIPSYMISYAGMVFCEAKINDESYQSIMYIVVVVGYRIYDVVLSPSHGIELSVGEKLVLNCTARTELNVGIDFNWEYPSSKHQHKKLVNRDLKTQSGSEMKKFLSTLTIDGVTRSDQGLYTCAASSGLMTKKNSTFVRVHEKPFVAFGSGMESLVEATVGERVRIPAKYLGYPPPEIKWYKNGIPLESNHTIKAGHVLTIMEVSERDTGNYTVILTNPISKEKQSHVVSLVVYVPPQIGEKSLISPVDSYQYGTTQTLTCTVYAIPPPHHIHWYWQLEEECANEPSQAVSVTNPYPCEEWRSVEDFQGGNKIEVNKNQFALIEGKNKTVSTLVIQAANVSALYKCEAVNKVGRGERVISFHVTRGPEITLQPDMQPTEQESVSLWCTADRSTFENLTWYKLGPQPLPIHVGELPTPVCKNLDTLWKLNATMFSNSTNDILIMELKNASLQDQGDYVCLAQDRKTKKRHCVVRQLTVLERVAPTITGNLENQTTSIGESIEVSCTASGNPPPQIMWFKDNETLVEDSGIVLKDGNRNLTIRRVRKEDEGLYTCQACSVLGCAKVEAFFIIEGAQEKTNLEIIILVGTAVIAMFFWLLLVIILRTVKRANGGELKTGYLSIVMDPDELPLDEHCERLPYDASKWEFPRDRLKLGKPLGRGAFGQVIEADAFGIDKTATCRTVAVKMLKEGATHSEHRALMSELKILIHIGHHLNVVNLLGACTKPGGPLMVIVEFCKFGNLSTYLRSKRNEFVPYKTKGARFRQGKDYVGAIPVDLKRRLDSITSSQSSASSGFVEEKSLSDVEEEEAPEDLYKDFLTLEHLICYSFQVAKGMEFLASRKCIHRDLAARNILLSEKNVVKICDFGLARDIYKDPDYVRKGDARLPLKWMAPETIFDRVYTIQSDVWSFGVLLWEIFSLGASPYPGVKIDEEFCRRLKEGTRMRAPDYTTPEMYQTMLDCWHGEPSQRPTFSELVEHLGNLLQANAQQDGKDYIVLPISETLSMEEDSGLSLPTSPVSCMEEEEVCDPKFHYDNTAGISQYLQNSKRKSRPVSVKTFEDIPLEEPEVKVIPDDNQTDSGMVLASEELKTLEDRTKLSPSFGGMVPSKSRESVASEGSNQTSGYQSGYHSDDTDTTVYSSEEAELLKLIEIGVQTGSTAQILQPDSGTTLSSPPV
row,Ki [µM],Compound
1,3.98,CCn1c(=O)/c(=C\Nc2ccccc2)s/c1=C(/C#N)C(=O)O

# Molecular target: CDK5 (human) (UniProt Q00535)
# Experiment: Flashplate
# Sequence of CDK5 (human) (Q00535 whole entry, looked up): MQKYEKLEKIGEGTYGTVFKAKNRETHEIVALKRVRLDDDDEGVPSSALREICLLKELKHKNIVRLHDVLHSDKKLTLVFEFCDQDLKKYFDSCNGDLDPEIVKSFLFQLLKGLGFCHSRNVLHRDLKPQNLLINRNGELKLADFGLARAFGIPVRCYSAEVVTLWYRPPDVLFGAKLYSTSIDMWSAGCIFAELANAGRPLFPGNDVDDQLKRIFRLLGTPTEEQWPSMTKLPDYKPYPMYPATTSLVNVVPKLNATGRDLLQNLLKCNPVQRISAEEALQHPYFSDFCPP
row,Ki [µM],Compound
1,0.251,O=C(O)c1ccccc1Nc1ncnc(Nc2ccc3cn[nH]c3c2)n1

# Molecular target: CHEK2 (human) (UniProt O96017)
# Experiment: Flashplate
# Sequence of CHEK2 (human) (O96017 whole entry, looked up): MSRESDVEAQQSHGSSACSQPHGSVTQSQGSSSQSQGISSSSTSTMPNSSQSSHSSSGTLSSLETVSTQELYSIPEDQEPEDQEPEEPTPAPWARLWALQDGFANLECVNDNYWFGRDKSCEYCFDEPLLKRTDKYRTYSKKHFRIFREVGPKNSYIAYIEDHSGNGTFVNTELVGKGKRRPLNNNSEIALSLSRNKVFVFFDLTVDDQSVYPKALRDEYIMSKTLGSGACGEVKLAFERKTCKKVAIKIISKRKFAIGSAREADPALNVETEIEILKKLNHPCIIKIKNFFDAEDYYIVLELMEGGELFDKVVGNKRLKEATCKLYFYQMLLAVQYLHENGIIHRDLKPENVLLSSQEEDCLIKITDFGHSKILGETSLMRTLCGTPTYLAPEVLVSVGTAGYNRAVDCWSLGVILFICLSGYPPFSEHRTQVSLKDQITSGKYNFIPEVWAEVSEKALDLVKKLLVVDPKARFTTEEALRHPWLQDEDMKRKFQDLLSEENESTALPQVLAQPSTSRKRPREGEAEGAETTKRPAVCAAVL
row,Ki [µM],Compound
1,3.98,CCn1c(=O)/c(=C\Nc2ccccc2)s/c1=C(/C#N)C(=O)O

# Molecular target: PLK3 (human) (UniProt Q9H4B4)
# Experiment: Flashplate
row,Ki [µM],Compound
1,0.00794,COc1cc2ncn(-c3cc(OCc4ccccc4C(F)(F)F)c(C(N)=O)s3)c2cc1OC

# Molecular target: DYRK1A (human) (UniProt Q13627)
# Experiment: Flashplate
row,Ki [µM],Compound
1,0.251,O=C(O)c1ccccc1Nc1ncnc(Nc2ccc3cn[nH]c3c2)n1

# Molecular target: CLK4 (human) (UniProt Q9HAZ1)
# Sequence (Q9HAZ1 whole entry, looked up): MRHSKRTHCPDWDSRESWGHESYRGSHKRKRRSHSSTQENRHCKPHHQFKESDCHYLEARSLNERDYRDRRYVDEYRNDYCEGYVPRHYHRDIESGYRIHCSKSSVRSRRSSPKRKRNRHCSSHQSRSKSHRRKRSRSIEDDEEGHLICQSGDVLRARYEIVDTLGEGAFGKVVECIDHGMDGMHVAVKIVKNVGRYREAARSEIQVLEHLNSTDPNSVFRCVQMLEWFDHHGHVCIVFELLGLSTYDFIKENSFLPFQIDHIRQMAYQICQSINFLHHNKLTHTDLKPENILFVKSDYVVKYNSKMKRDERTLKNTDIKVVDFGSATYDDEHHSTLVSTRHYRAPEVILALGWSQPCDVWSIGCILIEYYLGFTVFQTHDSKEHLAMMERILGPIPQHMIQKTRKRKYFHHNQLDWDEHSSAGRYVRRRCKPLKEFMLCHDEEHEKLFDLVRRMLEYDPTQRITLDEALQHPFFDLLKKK
# Experiment: Flashplate
row,Ki [µM],Compound
1,1.26,Oc1cc(Cc2nc3ccccc3[nH]2)nn1-c1ccccc1

# Molecular target: SGK1 (human) (UniProt O00141)
# Sequence (O00141 whole entry, looked up): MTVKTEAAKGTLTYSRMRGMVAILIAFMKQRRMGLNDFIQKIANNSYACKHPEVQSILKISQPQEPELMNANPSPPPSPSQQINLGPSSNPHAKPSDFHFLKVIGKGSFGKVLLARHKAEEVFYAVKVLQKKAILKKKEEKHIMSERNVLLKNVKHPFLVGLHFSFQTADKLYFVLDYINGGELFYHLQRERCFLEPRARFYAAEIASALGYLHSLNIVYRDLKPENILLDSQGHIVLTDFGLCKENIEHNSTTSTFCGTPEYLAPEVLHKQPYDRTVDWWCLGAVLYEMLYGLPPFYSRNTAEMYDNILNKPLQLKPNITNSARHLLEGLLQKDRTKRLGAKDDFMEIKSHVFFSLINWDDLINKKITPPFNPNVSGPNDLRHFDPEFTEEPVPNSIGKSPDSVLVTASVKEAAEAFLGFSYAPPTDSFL
# Experiment: Flashplate
row,Ki [µM],Compound
1,> 10,COc1cc2ncn(-c3cc(OCc4ccccc4C(F)(F)F)c(C(N)=O)s3)c2cc1OC
2,3.98,CCn1c(=O)/c(=C\Nc2ccccc2)s/c1=C(/C#N)C(=O)O
3,1,O=C(NCc1ccc(Br)cc1)Nc1ccc2[nH]ncc2c1
4,> 10,COC(=O)c1ccccc1-c1ccc2c(c1)Nc1ccccc1NC2=O
5,> 10,COc1cccc2c1Nc1cc(Nc3ccncc3)ccc1C(=O)N2
6,> 10,Cc1ccc(CNc2c(Nc3ccncc3)c(=O)c2=O)cc1C
7,0.158,O[C@H]1CC[C@H](Nc2nc(Cl)cc(-c3c[nH]c4ncccc34)n2)CC1
8,> 10,O=S(=O)(O)c1ccc(NCc2ccc3c(c2)OCO3)c2c(O)cccc12
9,> 10,COc1cc(C=O)c(Cl)cc1NC(=O)Nc1cnc(C#N)cn1
10,> 10,CC(C)(C)OC(=O)n1cc(-c2cncn2C2CCCCC2)c2ccccc21
11,2,Cc1cccc(NC(=O)Nc2ccc(-c3cccc4[nH]ncc34)cc2)c1
12,0.0631,O=C(Nc1n[nH]c2ccc(-c3cn(Cc4ccccc4)nn3)cc12)c1ccccc1
13,> 10,COc1cccc(-c2cc3c(=O)[nH]c4ccccc4n3c2)c1
14,6.31,COc1cc(/C=C(\C#N)c2nc3ccccc3[nH]2)c(Br)cc1O
15,0.501,Cc1c(O)ccc2c1CCC/C2=N/NC(=O)Cc1cccc2ccccc12
16,3.98,CCCOc1cccc([C@@H](C)NC(=O)c2ccc(-c3ccncc3)cc2)c1

row,Ki [µM],Compound
1,3.16,COc1ccc(-c2cnc3c(Br)cnn3c2)cc1
2,> 10,CNC(=O)N1CCN(CCCOc2ccc3c(c2)-c2[nH]nc(-c4ccc(C#N)nc4)c2C3)CC1
3,> 10,COc1ccc(/C=C2/C(=O)ON=C2c2ccc(Br)cc2)cc1OC
4,> 10,COc1ccc(OC)c(Nc2ccc3nnc(-c4ccccc4)n3n2)c1
5,0.2,COc1cc(Nc2ncc([N+](=O)[O-])c(Nc3ccccc3C(N)=O)n2)cc(OC)c1OC
6,> 10,Cc1cc(C)cc(NC(=O)Nc2ccc(NC(=O)c3csc4ncnc(N)c34)cc2)c1
7,> 10,Fc1ccc(-c2nc3occn3c2-c2ccnc(NC3CCNCC3)n2)cc1
8,> 10,Cn1cncc1C(OCc1c(-c2ccc(OC(F)(F)F)cc2)cc(C#N)c(=O)n1C)c1ccc(C#N)cc1 (configuration not stated)
9,> 10,COCC(C)(C)CNc1nccc(-c2c(-c3ccc(F)cc3)nc3c(C)nccn23)n1
10,> 10,COc1ccc2c(NC(=O)Nc3cc(C(F)(F)F)ccn3)ccnc2c1
11,> 10,CCOC(=O)c1cn(-c2ccc(O)cc2C)c2cc(-c3ccncc3)ccc2c1=O
12,> 10,O=C(O)c1c2c(nc3ccccc13)C(=C1CCCC1)CC2
13,> 10,CCOc1nc(C(=O)NCc2cccnc2)cc(N)c1C#N
14,> 10,Cn1c(=O)c(Oc2ccc(F)cc2F)cc2cnc(NC3CCOCC3)nc21
15,3.16,Nc1ncnc2scc(-c3ccc(NC(=O)Nc4cc(C(F)(F)F)ccc4F)cc3)c12
16,> 10,N#Cc1ncc2nc1OCCCCCOc1cc(CCCO)c(Cl)cc1NC(=O)N2

# The remaining lines, values behind:
row,Compound,Ki [µM]
1,O=C1NCc2c1cccc2-c1ccc(Nc2nc3ccccc3[nH]2)cc1,5.01
2,Nc1ncc(-c2cnn(CCO)c2)c2scc(-c3ccc(NC(=O)Nc4cccc(F)c4)cc3)c12,2.51
3,Cc1ccc(F)c(NC(=O)Nc2ccc(-c3ccc4nccnc4c3N)cc2)c1,> 10
4,CCCOc1nc(NC(C)=O)cc(N)c1C#N,> 10
5,COc1cc(Nc2ncc(F)c(Nc3ccc4c(n3)NC(=O)C(C)(C)O4)n2)cc(OC)c1OC,> 7.94
6,O=C1Nc2ccccc2Nc2nnccc21,> 10
7,Cc1n[nH]c2ccc(-c3cncc(OCCN)c3)cc12,2
8,O=C(N[C@H](CO)c1ccccc1)c1ccc(-c2ccncc2)cc1,1.58
9,COC(=O)c1c(-c2ccc(NC(=O)Nc3ccccc3)cc2)c2c(N)ncnn2c1C,0.631
10,C(=C\c1cncc(O[C@@H]2CCNC2)c1)/c1ccncc1,> 10
11,NC[C@@H](NC(=O)c1ccc(-c2ccncc2)cc1)c1ccccc1,0.794
12,NCCOc1cccc(Nc2ccnc(N)n2)c1,> 10
13,CN1CCC[C@H]1COc1cncc(CCc2ccccc2)c1,> 10
14,Oc1cccc(-c2nc(N3CCOCC3)c3oc4ncccc4c3n2)c1,> 7.94
15,Cc1cccc(NC(=O)Nc2ccc(-c3csc4c(C#CCN5CCOCC5)cnc(N)c34)cc2)c1,6.31
16,Cc1c(Cl)c(N2CCC(CN)C2)nc2[nH]cc(C(=O)O)c(=O)c12 (configuration not stated),> 10
17,Oc1ccc(-c2nc(-c3ccc(F)cc3)c(-c3ccncc3)[nH]2)cc1,> 6.31
18,Nc1ncc(-c2ccncc2)c2scc(-c3ccc(NC(=O)Nc4cc(C(F)(F)F)ccc4F)cc3)c12,0.631
19,N#Cc1ncc2nc1OCCCCCOc1cc(OCC(O)CO)c(Cl)cc1NC(=O)N2 (configuration not stated),> 10
20,COc1ccc(CNc2c(Nc3ccncc3)c(=O)c2=O)c(OC)c1,> 10
21,O=C(N[C@H](CO)Cc1ccccc1)c1ccc(-c2ccncc2)cc1,6.31
22,CCN(CC)CCOc1ccc(-c2nc3c(C(N)=O)cccc3[nH]2)cc1,> 10
23,COc1nccc(-c2c(-c3ccc(F)cc3)ncn2[C@H]2CC[C@H](O)CC2)n1,> 10
24,CC(C)(CO)c1nnc2ccc(-c3c(-c4ccc(F)cc4F)nc4occn34)nn12,> 10

# Molecular target: CDK19 (human) (UniProt Q9BWU1)
# Sequence (Q9BWU1 whole entry, looked up): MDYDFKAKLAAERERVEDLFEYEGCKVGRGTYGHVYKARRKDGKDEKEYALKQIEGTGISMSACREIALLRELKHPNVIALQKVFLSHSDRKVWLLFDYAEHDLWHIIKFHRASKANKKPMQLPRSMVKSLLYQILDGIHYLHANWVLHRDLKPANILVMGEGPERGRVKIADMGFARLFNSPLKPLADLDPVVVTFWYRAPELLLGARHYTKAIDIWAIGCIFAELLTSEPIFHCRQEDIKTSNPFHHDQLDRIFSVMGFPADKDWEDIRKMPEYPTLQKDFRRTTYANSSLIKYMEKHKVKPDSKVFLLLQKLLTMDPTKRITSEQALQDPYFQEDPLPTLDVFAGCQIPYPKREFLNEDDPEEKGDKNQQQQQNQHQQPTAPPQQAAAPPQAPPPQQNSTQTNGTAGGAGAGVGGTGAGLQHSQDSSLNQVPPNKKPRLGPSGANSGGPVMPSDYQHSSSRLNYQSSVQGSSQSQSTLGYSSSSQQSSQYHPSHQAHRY
# Experiment: Flashplate
row,Ki [µM],Compound
1,> 100,Oc1cc(Cc2nc3ccccc3[nH]2)nn1-c1ccccc1
2,> 100,O=[N+]([O-])c1ccc(-n2nc(-c3ccncc3)cc2O)cc1

# Molecular target: CDC7 (human) (UniProt O00311)
# Sequence (O00311 whole entry, looked up): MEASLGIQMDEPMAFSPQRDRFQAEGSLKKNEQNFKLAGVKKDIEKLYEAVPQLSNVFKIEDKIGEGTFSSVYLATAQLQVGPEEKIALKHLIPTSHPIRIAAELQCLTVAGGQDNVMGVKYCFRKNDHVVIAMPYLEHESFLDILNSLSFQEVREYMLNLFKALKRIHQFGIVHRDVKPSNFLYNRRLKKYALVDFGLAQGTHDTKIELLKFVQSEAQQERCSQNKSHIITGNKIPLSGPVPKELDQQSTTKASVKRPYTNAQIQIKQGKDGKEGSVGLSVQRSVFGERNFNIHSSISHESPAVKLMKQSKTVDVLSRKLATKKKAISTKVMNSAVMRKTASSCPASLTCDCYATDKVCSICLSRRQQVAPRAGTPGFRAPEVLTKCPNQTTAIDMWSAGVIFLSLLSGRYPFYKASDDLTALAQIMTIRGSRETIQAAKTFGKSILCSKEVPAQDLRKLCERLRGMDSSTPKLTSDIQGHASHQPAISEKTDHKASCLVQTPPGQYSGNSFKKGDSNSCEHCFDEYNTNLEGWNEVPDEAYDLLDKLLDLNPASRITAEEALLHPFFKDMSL
# Experiment: Flashplate
row,Ki [µM],Compound
1,0.000398,CN(C)c1ccc(-c2c(-c3ccc4[nH]nc(N)c4c3)nnn2Cc2ccccc2)cc1
2,0.501,O=[N+]([O-])c1ccc(-n2nc(-c3ccncc3)cc2O)cc1

# Molecular target: MARK3 (human) (UniProt P27448)
# Sequence (P27448 whole entry, looked up): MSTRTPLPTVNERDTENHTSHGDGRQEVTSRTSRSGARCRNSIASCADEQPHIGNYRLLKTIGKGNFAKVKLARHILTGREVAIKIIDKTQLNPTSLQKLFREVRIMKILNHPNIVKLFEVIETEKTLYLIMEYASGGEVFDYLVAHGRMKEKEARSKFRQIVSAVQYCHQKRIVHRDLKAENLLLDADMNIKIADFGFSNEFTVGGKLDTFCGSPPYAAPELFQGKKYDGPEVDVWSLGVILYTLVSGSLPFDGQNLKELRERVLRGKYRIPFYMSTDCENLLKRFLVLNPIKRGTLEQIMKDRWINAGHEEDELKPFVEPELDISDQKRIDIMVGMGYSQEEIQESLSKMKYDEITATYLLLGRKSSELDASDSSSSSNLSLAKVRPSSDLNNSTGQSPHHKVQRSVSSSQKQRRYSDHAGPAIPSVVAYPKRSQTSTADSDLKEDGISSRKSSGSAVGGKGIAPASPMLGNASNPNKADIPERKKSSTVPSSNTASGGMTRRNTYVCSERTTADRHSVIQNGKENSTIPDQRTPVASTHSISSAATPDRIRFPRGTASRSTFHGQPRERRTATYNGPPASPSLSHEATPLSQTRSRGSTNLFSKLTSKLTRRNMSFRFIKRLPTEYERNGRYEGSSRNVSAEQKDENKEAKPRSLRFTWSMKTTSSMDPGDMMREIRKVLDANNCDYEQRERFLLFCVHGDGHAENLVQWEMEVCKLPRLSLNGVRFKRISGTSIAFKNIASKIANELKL
# Experiment: Flashplate
row,Ki [µM],Compound
1,3.98,CCn1c(=O)/c(=C\Nc2ccccc2)s/c1=C(/C#N)C(=O)O
